From patent US8198273B2, “Compounds and methods for kinase modulation, and indications therefor” (Plexxikon Inc., priority 2009, dated 2012) come the findings set out here.

The target in one series is CYP3A4(BQ) (Homo sapiens, UniProt P08684). The experiment in a line: CYP3A4(BQ) inhibition (fluorescent substrate). To be noted: read-out: Cyp IC50 3A4(BQ). Format: in vitro ADME. An outline of the steps:
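Compound, from a 100 mM DMSO stock and diluted 1:1 over 10 points in co-factor mix, was incubated at 37° C with enzyme and a known substrate. Decrease in fluorescent product against concentration gave the IC50.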

The target in another series is B-Raf (Homo sapiens, UniProt P15056). The experiment in a line: B-Raf biochemical kinase inhibition (AlphaScreen, biotin-MEK1 substrate). Conditions: 100 μM ATP. An outline of the steps: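 Eight-point compound series (made from a 0.1 mM DMSO stock) tested against each Raf enzyme with biotin-MEK1 substrate and 100 μM final ATP.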
B-Raf, sequence (P15056 whole entry): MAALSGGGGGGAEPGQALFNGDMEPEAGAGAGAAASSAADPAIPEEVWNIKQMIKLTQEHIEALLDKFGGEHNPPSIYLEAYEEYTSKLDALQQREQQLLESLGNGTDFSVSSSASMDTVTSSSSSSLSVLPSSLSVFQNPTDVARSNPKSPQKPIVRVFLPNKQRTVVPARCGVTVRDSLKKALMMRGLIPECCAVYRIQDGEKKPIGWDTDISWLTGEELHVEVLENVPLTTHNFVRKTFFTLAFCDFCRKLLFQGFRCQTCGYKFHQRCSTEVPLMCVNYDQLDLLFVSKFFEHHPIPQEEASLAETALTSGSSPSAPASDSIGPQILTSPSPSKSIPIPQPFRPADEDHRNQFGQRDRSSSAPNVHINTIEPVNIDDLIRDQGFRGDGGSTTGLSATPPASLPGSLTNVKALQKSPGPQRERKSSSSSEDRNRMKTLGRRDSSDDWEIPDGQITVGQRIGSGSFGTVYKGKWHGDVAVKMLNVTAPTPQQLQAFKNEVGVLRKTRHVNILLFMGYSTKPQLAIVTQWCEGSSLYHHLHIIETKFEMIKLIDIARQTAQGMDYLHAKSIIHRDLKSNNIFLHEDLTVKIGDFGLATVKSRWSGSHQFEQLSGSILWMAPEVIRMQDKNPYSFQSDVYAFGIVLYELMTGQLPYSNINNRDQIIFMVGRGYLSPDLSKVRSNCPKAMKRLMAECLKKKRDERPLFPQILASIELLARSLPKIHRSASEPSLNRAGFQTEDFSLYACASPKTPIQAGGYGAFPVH
(In Alpha technology, singlet oxygen from a donor bead excites a nearby acceptor bead.)

The target in a further series is CYP2D6 (Homo sapiens, UniProt P10635). The experiment in a line: CYP2D6 inhibition (fluorescent substrate). It is filed as in vitro ADME. To be noted: CYP2D6, AMMC substrate; read-out: Cyp IC50 2D6. The protocol:
CYP (Cytochrome P450) enzymes are the major drug metabolizing enzymes present in the liver. The inhibition of CYP enzyme activity (IC50) for each of CYP1A2, CYP2C19, CYP2C9, CYP2D6, CYP3A4(BFC) and CYP3A4(BQ) is determined for compounds, where inhibition of metabolism of a known substrate leads to a decrease in the fluorescence of the metabolized product. The fluorescence of the product is monitored as a function of compound concentration.
Compounds are dissolved in dimethyl sulfoxide to a concentration of 100 mM. These are diluted 1 μL into 82 μL of acetonitrile. […] These are then serially diluted 1:1 (160 μL to 160 μL co-factor mix) for a total of 10 points. A 10 μL aliquot of this final mixture is dispensed into 384 well assay plates and incubated for 10 minutes at 37° C. […] Assay plates are incubated at 37° C. […] The signal versus compound concentration is used to determine the IC50. The enzymes and substrates for this assay are obtained from BD Biosciences.

CYP2D6, sequence (P10635 whole entry): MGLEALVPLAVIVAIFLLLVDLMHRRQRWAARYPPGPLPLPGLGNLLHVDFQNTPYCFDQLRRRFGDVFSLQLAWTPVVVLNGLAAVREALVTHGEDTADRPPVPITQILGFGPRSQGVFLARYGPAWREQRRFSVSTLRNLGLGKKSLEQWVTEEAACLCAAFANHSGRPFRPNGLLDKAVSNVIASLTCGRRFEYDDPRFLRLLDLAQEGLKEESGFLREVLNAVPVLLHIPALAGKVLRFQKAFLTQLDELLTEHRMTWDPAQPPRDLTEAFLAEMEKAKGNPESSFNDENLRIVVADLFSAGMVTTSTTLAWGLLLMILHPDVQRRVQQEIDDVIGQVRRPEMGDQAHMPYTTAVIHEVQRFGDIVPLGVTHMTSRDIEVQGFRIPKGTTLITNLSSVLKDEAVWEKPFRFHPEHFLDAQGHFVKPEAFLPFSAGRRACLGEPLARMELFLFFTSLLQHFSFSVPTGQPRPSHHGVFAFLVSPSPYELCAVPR
CYP3A4(BQ), sequence (P08684 whole entry): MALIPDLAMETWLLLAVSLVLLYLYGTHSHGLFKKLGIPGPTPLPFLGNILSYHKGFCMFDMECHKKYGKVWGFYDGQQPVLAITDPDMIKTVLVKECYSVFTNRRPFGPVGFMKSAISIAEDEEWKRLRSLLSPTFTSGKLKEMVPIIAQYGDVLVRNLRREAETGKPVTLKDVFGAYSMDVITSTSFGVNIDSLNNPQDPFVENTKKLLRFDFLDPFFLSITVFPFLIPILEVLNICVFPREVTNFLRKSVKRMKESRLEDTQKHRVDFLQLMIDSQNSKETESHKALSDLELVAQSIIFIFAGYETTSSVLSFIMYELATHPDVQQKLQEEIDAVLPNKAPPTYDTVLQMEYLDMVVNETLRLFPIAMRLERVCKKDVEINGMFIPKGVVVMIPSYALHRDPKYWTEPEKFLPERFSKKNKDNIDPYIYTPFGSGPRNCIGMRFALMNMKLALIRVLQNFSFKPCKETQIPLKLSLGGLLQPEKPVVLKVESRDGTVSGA

`CCCS(=O)(=O)Nc1ccc(F)c(C(=O)c2c[nH]c3ncc(-c4ccc(C(=O)NC5CC5)nc4)cc23)c1F` [P-2181, 5-{3-[2,6-Difluoro-3-(propane-1-sulfonylamino)-benzoyl]-1H-pyrrolo[2,3-b]pyridin-5-yl}-pyridine-2-carboxylic acid cyclopropylamide]: the IC50 on CYP3A4(BQ) is > 10 µM; at B-Raf, < 0.01 µM; on CYP2D6, > 10 µM.
Regarding `COc1ncc(-c2cnc3[nH]cc(C(=O)c4c(F)ccc(NS(=O)(=O)c5c(F)cccc5F)c4F)c3c2)cn1` [P-2043, N-{2,4-Difluoro-3-[5-(2-methoxy-pyrimidin-5-yl)-1H-pyrrolo[2,3-b]pyridine-3-carbonyl]-phenyl}-2,6-difluoro-benzenesulfonamide], the IC50 was > 10 µM on CYP3A4(BQ), < 0.01 µM against B-Raf and 5 to 10 µM on CYP2D6.
For `CCCS(=O)(=O)Nc1ccc(F)c(C(=O)c2c[nH]c3ncc(-c4ccc(SC)nc4)cc23)c1F` [P-2187, Propane-1-sulfonic acid {2,4-difluoro-3-[5-(6-methylsulfanyl-pyridin-3-yl)-1H-pyrrolo[2,3-b]pyridine-3-carbonyl]-phenyl}-amide], the IC50 on CYP3A4(BQ) is > 10 µM; on B-Raf, < 0.01 µM; at CYP2D6, > 10 µM.
For the molecule `O=C(c1c(F)ccc(NS(=O)(=O)c2c(F)cccc2F)c1F)c1c[nH]c2ncc(Cl)cc12` [P-2003, N-[3-(5-Chloro-1H-pyrrolo[2,3-b]pyridine-3-carbonyl)-2,4-difluoro-phenyl]-2,6-difluoro-benzenesulfonamide], the IC50 was > 10 µM on CYP3A4(BQ), < 0.1 µM against B-Raf and > 10 µM on CYP2D6.
For the molecule `Cc1cnc2[nH]cc(C(=O)c3c(F)ccc(NS(=O)(=O)c4cccnc4)c3F)c2c1` [P-2069, Pyridine-3-sulfonic acid [2,4-difluoro-3-(5-methyl-1H-pyrrolo[2,3-b]pyridine-3-carbonyl)-phenyl]-amide], the IC50 was < 5 µM on CYP3A4(BQ), < 0.01 µM at B-Raf and > 10 µM at CYP2D6.
For the molecule `CCCS(=O)(=O)Nc1ccc(F)c(C(=O)c2c[nH]c3ncc(-c4ccc(OCCCN5CCCC5)nc4)cc23)c1F` [P-2235, Propane-1-sulfonic acid (2,4-difluoro-3-{5-[6-(3-pyrrolidin-1-yl-propoxy)-pyridin-3-yl]-1H-pyrrolo[2,3-b]pyridine-3-carbonyl}-phenyl)-amide], the IC50 was > 10 µM on CYP3A4(BQ), < 0.01 µM against B-Raf and > 10 µM on CYP2D6.
Take `CCCS(=O)(=O)Nc1ccc(F)c(C(=O)c2c[nH]c3ncc(-c4ccc(OC)nc4OC)cc23)c1F` [P-2184, Propane-1-sulfonic acid {3-[5-(2,6-dimethoxy-pyridin-3-yl)-1H-pyrrolo[2,3-b]pyridine-3-carbonyl]-2,4-difluoro-phenyl}-amide]: the IC50 on CYP3A4(BQ) is > 10 µM; against B-Raf, < 0.1 µM; on CYP2D6, > 10 µM.
Turning to `CCCS(=O)(=O)Nc1ccc(F)c(C(=O)c2c[nH]c3ncc(-c4ccc(CCCOC)nc4)cc23)c1F` [P-2226, Propane-1-sulfonic acid (2,4-difluoro-3-{5-[6-(3-methoxy-propyl)-pyridin-3-yl]-1H-pyrrolo[2,3-b]pyridine-3-carbonyl}-phenyl)-amide], the IC50 at CYP3A4(BQ) is > 10 µM; on B-Raf, < 0.01 µM; at CYP2D6, > 10 µM.
Consider `CCCS(=O)(=O)Nc1ccc(F)c(C(=O)c2c[nH]c3ncc(-c4cnn(Cc5ccccc5)c4)cc23)c1F` [P-2190, Propane-1-sulfonic acid {3-[5-(1-benzyl-1H-pyrazol-4-yl)-1H-pyrrolo[2,3-b]pyridine-3-carbonyl]-2,4-difluoro-phenyl}-amide], for which the results for the IC50 at CYP3A4(BQ), on B-Raf and at CYP2D6 were > 10 µM, < 0.01 µM and > 10 µM, respectively.

One may read the IC50 as the concentration that gives 50% inhibition.
